Results as given in patent US8513232B2, “Substituted spirocyclic piperidine derivatives as histamine-3 (H3) receptor ligands” (Cephalon, Inc., priority 2008, dated 2013).
Like-named read-outs stand apart in the source and are kept apart here.

Assays:
[1] = biological target: T1, human H3 receptor (Homo sapiens, UniProt Q9Y5N1); experiment: Human H3 radioligand binding ([3H]-N-alpha-methylhistamine, SPA)
T1 construct: expressed in transfected cells
Method: (§1) Methods: CHO cells stably expressing the human H3 receptor (GenBank: NM_007232) were harvested and cell pellets were frozen (−80° C.). Cell pellets were resuspended in 5 mM Tris-HCl, pH 7.5 with […] and a cocktail of protease inhibitors (Complete Protease Inhibitior Tablets, Roche Diagnostics). Cells were disrupted using a polytron cell homogenizer and the suspension was centrifuged at 1000×g for 10 minutes at 4° C. The pellet was discarded and the supernatant centrifuged at 40,000×g for 30 min at 4° C. This membrane pellet was washed in membrane buffer containing 50 mM Tris-HCl, pH 7.5 with 0.6 mM EDTA, 5 mM MgCl2 and protease inhibitors, recentrifuged as above and the final pellet resuspended in membrane buffer plus 250 mM sucrose and frozen at −80° C.
(§2) Radioligand Binding. Membranes were resuspended in 50 mM Tris HCl (pH 7.4), 5 mM MgCl2, 0.1% BSA. The membrane suspensions (10 μg protein per well) were incubated in a 96 well microtiter plate with [^3H]-N-alpha-methylhistamine (approximately 1 nM final concentration), test compounds at various concentrations (0.01 nM-30 μM) and scintillation proximity beads (Perkin Elmer, FlashBlueGPCR Scintillating Beads) in a final volume of 80 μl for 4 hours at room temperature, protected from light. Non-specific binding was determined in the presence of 10 μM clobenpropit. Radioligand bound to receptor, and therefore in proximity to the scintillation beads, was measured using a MicroBeta scintillation counter.

[2] = biological target: T2, rat histamine H3 receptor (Rattus norvegicus, UniProt Q9QYN8); experiment: Rat H3 radioligand binding ([3H]-N-alpha-methylhistamine, SPA)
T2 construct: encoding the entire 445-amino-acid rat histamine H3 receptor; expressed in transfected cells; membrane preparation
T2 sequence (Q9QYN8 whole entry): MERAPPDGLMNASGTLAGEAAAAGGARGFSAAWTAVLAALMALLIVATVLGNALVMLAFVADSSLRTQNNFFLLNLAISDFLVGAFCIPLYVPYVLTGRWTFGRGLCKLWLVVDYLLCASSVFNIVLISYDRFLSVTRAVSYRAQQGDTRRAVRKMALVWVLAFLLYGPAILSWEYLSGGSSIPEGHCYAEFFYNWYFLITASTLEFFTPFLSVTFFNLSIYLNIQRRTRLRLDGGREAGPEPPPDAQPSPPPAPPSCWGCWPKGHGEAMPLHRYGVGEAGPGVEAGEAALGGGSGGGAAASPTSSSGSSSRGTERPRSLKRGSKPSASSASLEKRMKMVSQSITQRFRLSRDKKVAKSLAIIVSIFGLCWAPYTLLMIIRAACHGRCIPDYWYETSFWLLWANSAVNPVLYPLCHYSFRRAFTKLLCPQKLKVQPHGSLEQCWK
Description: as §1, with “Cell line development and membrane preparation. The rat” for “Methods: CHO cells stably expressing the human”, “cDNA was PCR amplified from reverse-transcribed RNA pooled from rat thalamus, hypothalamus, striatum and prefrontal cortex with a sequence corresponding to by #338-1672 of Genbank file #NM_053506, encoding the entire 445-amino-acid rat histamine H3 receptor. This was engineered into the pIRES-neo3 mammalian expression vector, which was stably transfected into the CHO-A3 cell line (Euroscreen, Belgium), followed by clonal selection by limiting dilution. Cells” for “(GenBank: NM_007232)”
as §2

[3] = Table A, human H3 binding, read-out: Human Ki
[4] = Table A, rat H3 binding, read-out: Rat Ki
[5] = Human H3 binding, Table B, Examples 136-362, read-out: hum H3 binding Ki
[6] = Rat H3 binding, Table B, Examples 136-362, read-out: rat H3 binding Ki
[7] = Table C, human H3 binding, read-out: Human H3 Ki
[8] = Table C, rat H3 binding, read-out: Rat H3 Ki

T1 sequence (Q9Y5N1 whole entry): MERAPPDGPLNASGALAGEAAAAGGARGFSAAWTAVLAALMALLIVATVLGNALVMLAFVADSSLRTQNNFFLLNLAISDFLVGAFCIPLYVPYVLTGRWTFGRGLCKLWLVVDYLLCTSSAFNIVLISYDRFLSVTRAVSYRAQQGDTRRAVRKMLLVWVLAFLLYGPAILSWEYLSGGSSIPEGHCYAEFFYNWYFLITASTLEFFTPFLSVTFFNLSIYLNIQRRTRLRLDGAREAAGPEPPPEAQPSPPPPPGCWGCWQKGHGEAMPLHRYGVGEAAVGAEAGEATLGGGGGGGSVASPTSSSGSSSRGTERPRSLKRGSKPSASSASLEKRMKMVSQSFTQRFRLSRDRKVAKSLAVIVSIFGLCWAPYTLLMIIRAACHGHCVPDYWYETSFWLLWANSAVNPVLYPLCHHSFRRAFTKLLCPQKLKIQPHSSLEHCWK

In the case of `OCc1ccc(-c2ccc3c(c2)CCC2(CCN(C4CCC4)CC2)O3)cc1` [Example 117], the Ki [1, 3] is reported as less than 200 nM and the Ki [2, 4] is reported as less than 200 nM.

With `Fc1ncccc1-c1ccc2c(c1)CCC1(CCN(C3CCC3)CC1)O2` [Example 118] the Ki [1, 3] was less than 200 nM and the Ki [2, 4] was less than 200 nM.

`c1ccc(Oc2ccc3c(c2)COC2(CCN(C4CCC4)CC2)O3)cc1` [Example 131] was tested, and the Ki [1, 3] was 200 to 1000 nM and the Ki [2, 4] was less than 200 nM.

For `N#Cc1ccc(Oc2ccc3c(c2)COC2(CCN(C4CCC4)CC2)O3)cc1` [Example 132], the Ki [1, 3] was less than 200 nM and the Ki [2, 4] was less than 200 nM.

`c1cnc(-c2ccc3c(c2)CCC2(CCN(C4CCC4)CC2)O3)cn1` [Example 145] gave a Ki [1, 5] of less than 200 nM and a Ki [2, 6] of less than 200 nM.

`CNC(=O)c1ccc(-c2ccc3c(c2)COC2(CCN(C4CCC4)CC2)O3)cc1C#N` [Example 179] was tested, and the Ki [1, 5] was less than 200 nM and the Ki [2, 6] was less than 200 nM.

In the case of `O=C(Nc1ccc2c(c1)COC1(CCN(C3CCC3)CC1)O2)Nc1ccccc1Cl` [Example 185], the Ki [1, 5] is reported as less than 200 nM and the Ki [2, 6] is reported as less than 200 nM.

Work on `O=C(c1ccc(-c2ccc3c(c2)CCC2(CCN(C4CCC4)CC2)O3)cn1)N1CC[C@H](O)C1` [Example 213] yielded a Ki [1, 5] of less than 200 nM and a Ki [2, 6] of less than 200 nM.

`c1cc2c(cc1N1CCOCC1)COC1(CCN(C3CCC3)CC1)O2` [Example 214] was tested, and the Ki [1, 5] was less than 200 nM and the Ki [2, 6] was less than 200 nM.

Compound `COCCN(C)C(=O)c1ccc(-c2ccc3c(c2)CCC2(CCN(C4CCC4)CC2)O3)cc1F` [Example 294] has a Ki [1, 5] of less than 200 nM and a Ki [2, 6] of less than 200 nM.

For `COCCN(C)C(=O)c1ccc(-c2ccc3c(c2)COC2(CCN(C4CCC4)CC2)O3)cc1F` [Example 300], the Ki [1, 5] was less than 200 nM and the Ki [2, 6] was less than 200 nM.

`c1cnc(COc2ccc3c(c2)CCC2(CCN(C4CCC4)CC2)O3)nc1` [Example 317] showed a Ki [1, 5] of less than 200 nM and a Ki [2, 6] of less than 200 nM.

`O=C(O)c1c(F)cc(-c2ccc3c(c2)CCC2(CCN(C4CCC4)CC2)O3)cc1F` [Example 318] showed a Ki [1, 5] of less than 200 nM and a Ki [2, 6] of less than 200 nM.

With `Cc1cc(-c2ccc3c(c2)CCC2(CCN(C4CCC4)CC2)O3)ccc1C(=O)O` [Example 327] the Ki [1, 5] was less than 200 nM and the Ki [2, 6] was 200 to 1000 nM.

Work on `O=C(O)c1c(F)cc(-c2ccc3c(c2)COC2(CCN(C4CCC4)CC2)O3)cc1F` [Example 334] yielded a Ki [1, 5] of 200 to 1000 nM and a Ki ([2]; Rat H3 binding, Table B, given as numeric bound instead of class symbol, read-out: rat H3 binding Ki) greater than 300 nM.

`NC(=O)c1c(F)cc(-c2ccc3c(c2)CCC2(CCN(C4CCC4)CC2)O3)cc1F` [Example 340] was tested, and the Ki [1, 5] was less than 200 nM and the Ki [2, 6] was less than 200 nM.

`NC(=O)c1ccc(N2CCN(c3ccc4c(c3)CCC3(CCN(C5CCC5)CC3)O4)CC2)nc1` [Example 379] gave a Ki [1, 7] of less than 200 nM and a Ki [2, 8] of less than 200 nM.

`COC1CCN(c2ccc3c(c2)CCC2(CCN(C4CCC4)CC2)O3)CC1` [Example 380] showed a Ki [1, 7] of less than 200 nM and a Ki [2, 8] of less than 200 nM.

For `CS(=O)(=O)N1CCC(Oc2ccc3c(c2)CCC2(CCN(C4CCC4)CC2)O3)CC1` [Example 408], the Ki [1, 7] was less than 200 nM and the Ki [2, 8] was less than 200 nM.

In the case of `CN(C)C(=O)c1ccc(N2CCN(c3ccc4c(c3)CCC3(CCN(C5CCC5)CC3)O4)CC2)nc1` [Example 410], the Ki [1, 7] is reported as less than 200 nM and the Ki [2, 8] is reported as less than 200 nM.

`c1cc2c(cc1OC1CCNCC1)CCC1(CCN(C3CCC3)CC1)O2` [Example 425] gave a Ki [1, 7] of less than 200 nM and a Ki [2, 8] of less than 200 nM.

Work on `c1cn2c(n1)CN(c1ccc3c(c1)CCC1(CCN(C4CCC4)CC1)O3)CC2` [Example 428] yielded a Ki [1, 7] of less than 200 nM and a Ki [2, 8] of less than 200 nM.

Work on `c1cc2c(cc1OCC1CCCO1)CCC1(CCN(C3CCC3)C1)O2` (centres unmarked) [Example 445] yielded a Ki ([1]; read-out: Human H3 Ki) of 200 to 1000 nM and a Ki ([2]; read-out: Rat H3 kI) of 200 to 1000 nM.

In the case of `c1cc2c(cc1OCC1CCCO1)CCC1(CCN(C3CCC3)CC1)O2` (centres unmarked) [Example 449], the Ki ([1]; read-out: Human H3 Ki) is reported as less than 200 nM and the Ki ([2]; read-out: Rat H3 kI) is reported as less than 200 nM.

`c1cc2c(cc1OC1CCSCC1)CCC1(CCN(C3CCC3)CC1)O2` [Example 457] gave a Ki ([1]; read-out: Human H3 Ki) of less than 200 nM and a Ki ([2]; read-out: Rat H3 kI) of less than 200 nM.

In the case of `c1cc2c(cc1OC[C@H]1CCCO1)CCC1(CCN(C3CCC3)CC1)O2` [Example 464], the Ki ([1]; read-out: Human H3 Ki) is reported as less than 200 nM and the Ki ([2]; read-out: Rat H3 kI) is reported as less than 200 nM.

Compound `c1cc2c(cc1OC1CCSC1)CCC1(CCN(C3CCC3)CC1)O2` (centres unmarked) [Example 484] has a Ki ([1]; read-out: Human H3 Ki) of less than 200 nM and a Ki ([2]; read-out: Rat H3 kI) of less than 200 nM.

Compound `O=S1(=O)CCC(COc2ccc3c(c2)CCC2(CCN(C4CCC4)CC2)O3)CC1` [Example 500] has a Ki ([1]; read-out: Human H3 Ki) of less than 200 nM and a Ki ([2]; read-out: Rat H3 kI) of less than 200 nM.
